For experiment [1], the system named is HCV replicon cells Huh 9B (genotype 1b). Description: 1b Replicon Assay (luciferase readout). The experiment is classed as cell-based. As to conditions: Hepatitis C virus, Huh 9B replicon cells, 72 h, luciferase activity. On the procedure:
HCV replicon cells Huh 9B (ReBlikon), containing the firefly luciferase-ubiquitin-neomycin phosphotransferase fusion protein and EMCV-IRES driven HCV polyprotein with cell culture adaptive mutations.
Cells were cultured at 37° C./5% CO2 and split twice a week. G418 at 0.5 mg/ml was added to the culture medium but not the assay medium.
The culture medium consisted of DMEM with […] glucose and Glutamax (Gibco 61965-026) supplemented with 1× non-essential amino acids (Invitrogen 11140-035), 0.5 mg/ml G418 (Invitrogen 10131-027) and 10% Australian foetal calf serum (Invitrogen 10099-141).
Replicon cells were trypsinised and counted. Cells were diluted to 100,000 cells/ml and 100 μl used to seed one opaque white 96-well plate (for the replicon assay) and one flat-bottomed clear plate (for the tox assay) for every five compounds to be tested for IC50. Wells G12 and H12 were left empty in the clear plate as the blank. Plates were then incubated at 37° C./5% CO2 for 24 h.
On the following day compound dilutions were prepared in medium at twice their desired final concentration in a clear round bottomed plate. All dilutions have a final DMSO concentration of 1%.
Controls and compounds were transferred from the dilution plates to the assay plates (containing the cells) at 100 μl/well in duplicate wells.
Exception: no compound was added to wells A1 and A2 of either plate and 100 μl of 1% DMSO was added to these instead. Plates were then incubated at 37° C./5% CO2 for 72 h.
At the end of the incubation time, the cells in the white plate were washed in PBS (100 μL per well) and dried by tapping before addition of 204 per well of lysis buffer (25 mM tris-phosphate, 8 mM MgCl2, 1 mM DTT, 1% Triton X-100, 15% glycerol; pH to 7.8 using KH2PO4 prior to Triton X-100 and glycerol addition). Aliquots of substrate (23.5 mM beetle luciferin (Promega E1603), 26 mM ATP (Sigma O-2060) in […] Tris buffer pH 7.8) were stored at −80° C. Prior to use, required amount of luciferin was thawed and diluted 1:50 in luciferase assay buffer (20 mM Tricine (Sigma T-0377), 1.07 mM magnesium carbonate hydroxide (Sigma M-5671), 0.1 mM EDTA (Sigma E-5134), 2.67 mM MgSO4(BDH 101514Y), 33.3 mM dithiothreitol (Sigma 150460) pH 7.8).
After 5-60 min incubation in lysis buffer at room temperature, a plate was inserted into the luminometer and 100 μl luciferase assay reagent was added by the injector of the luminometer. The signal was measured using a 1 second delay followed by a 4 second measurement programme. The IC50, the concentration of the drug required for reducing the replicon level by 50% in relation to the untreated cell control value, was calculated from the plot of the percentage reduction of the luciferase activity vs. drug concentration.
On the technique in general: In antiviral work, replicon cells carry a viral genome segment that copies itself.

Experiment [2] has as its system HCV genotype 1a replicon cells Htat2ANeo. Nature of the experiment: 1a Replicon Assay (cell-based anti-NS5a ELISA). The settings on record: Hepatitis C virus, 72 h. The procedure:
HCV genotype la replicon cells Htat2ANeo (University of Texas), containing neomycin phosphotransferase fusion protein and EMCV-IRES driven HCV polyprotein with cell culture adaptive mutations, and control cells, Et2AN.
Cells were cultured at 37° C./5% CO2 and split twice a week. G418 at 0.5 mg/ml and Blastocidin at 2 mg/ml were added to the culture medium but not the assay medium.
The culture medium consisted of DMEM with […] glucose and Glutamax (Gibco 61965-026) supplemented with 1× non-essential amino acids (Invitrogen 11140-035), 0.5 mg/ml G418 (Invitrogen 10131-027), 2 mg/ml Blastocidin (PAA) and 10% is Australian foetal calf serum (Invitrogen 10099-141).
Replicon and control cells were trypsinised and counted. Replicon cells were diluted to 90,000 cells/ml and 100 μl of this used to seed columns 2-4, […] and 10-12 of a black, clear bottom 96-well plate for every three compounds to be tested for IC50. Control cells were diluted to 60,000 cells/ml and 100 μl of this used to seed columns 1, 5 and 9 of the plate. Well H1 was left empty as the blank. Plates were then incubated at 37° C./5% CO2 for 24 h.
On the following day compound dilutions were prepared in medium at twice their desired final concentration in a clear round bottomed plate.
Controls and compounds were transferred from the dilution plate to the assay plates (containing the cells) at 100 μl/well in quadruplicate wells, one well containing control cells and 3 wells containing replicon cells.
Exception: no compound was added to row H of the plate and 100 μl of 1% DMSO was added to these instead. Plates were then incubated at 37° C. with 5% CO2 for 72 h. At the end of the incubation time, any reduction in cell viability was assayed and a cell-based enzyme linked immunosorbent assay (ELISA) was performed. The media/compound was removed from all wells and replaced with 100 μl/well serum-free media and 20 μl/well Cell Titre Blue (Promega G8081). Following incubation at 37° C./5% CO2 for 2 h plates were read on a microplate fluorometer (Molecular Devices) using an excitation of 570 nm and an emission of 590 nm The TD50, the concentration of drug required to reduce 50% of Cell Titre Blue relative to the DMSO controls, was calculated by plotting the fluorescence at 590 nm after substraction of background against drug concentration.
The media/Cell Titre Blue was removed and plates washed in PBS and gently tapped dry before addition of 50 μL per well of 75% acetone/25% methanol mixture for 3 minutes. The fixative was then discarded and wells were washed with PBS before addition of 100 μl/well of blocking solution (2% non-fat dry milk and 0.05% Tween-20 in 0.85% NaCl). Plates were then incubated at 37° C. in a shaking incubator for 60 min. Blocking solution was discarded and 50 μl of mouse anti-NS5a antibody (Virostat 1877) at 1:100 dilution in blocking buffer was added to all wells. Plates were incubated at 37° C. in a shaking incubator for 90 min Antibody was then discarded and plates were washed 4 times by immersion in 0.85% NaCl/0.05% Tween-20. After washing plates were tapped dry gently and 50 μl of secondary antibody (Dako P0260 Rabbit anti-mouse horseradish peroxidase) at 1:1000 dilution in blocking buffer was added to the wells. Plates were incubated at 37° C. in a shaking incubator for 60 min. Antibody was discarded and plates were washed 6 times by immersion in 0.85% NaCl/0.05% Tween-20 and once in PBS. Finally, 50 μl of substrate (SigmaFast ortho-phenylene diamine dihydrochloride (OPD)) was added per well and the colorimetric reaction was allowed to proceed in the dark for 5 to 15 minutes depending on the strength or the signal. The reaction was stopped by addition of 25 μl/well of 20% sulphuric acid. Plates were read on the SpectraMax microplate reader at 490 nm fixed wavelength. […]

Where [3] appears, read: read-out: pIC50 1b Replicon (converted).
[4] abbreviates: read-out: pIC50 1a Replicon (converted).

Read-outs that look alike come from different tables or passages of the source.

With `CC(C)[C@H](N)C(=O)N1CCC[C@H]1c1ncc(-c2ccc(-c3ccc(C(=O)Nc4ccc(CN5CCS(=O)(=O)CC5)cc4)cc3)cc2)[nH]1` [Example 10, 4-[4-[2-[(2S)-1-[(2S)-2-amino-3-methyl-butanoyl]pyrrolidin-2-yl]-1H-imidazol-5-yl]phenyl]-N-[4-[(1,1-dioxo-1,4-thiazinan-4-yl)methyl]phenyl]benzamide], the IC50 in experiment [1] (read-out: HCV IC50 1b Replicon) is 65.2 nM; in experiment [1] (setting [3]), 64.6 nM; in experiment [2] (read-out: HCV IC50 Elisa 1a), 320 nM; in experiment [2] (setting [4]) it was 324 nM.
For `CC(C)(C)OC(=O)NCC(=O)N1CCC[C@H]1c1ncc(-c2ccc(-c3ccc(C(=O)Nc4ccc(CN5CCS(=O)(=O)CC5)cc4)cc3)cc2)[nH]1` [Example 12, tert-Butyl N-[2-[(2S)-2-[5-[4-[4-[[4-[(1,1-dioxo-1,4-thiazinan-4-yl)methyl]phenyl]carbamoyl]phenyl]phenyl]-1H-imidazol-2-yl]pyrrolidin-1-yl]-2-oxo-ethyl]carbamate], in that order: 106 nM, 105 nM, 164 nM and 162 nM.
For `CCN(CC)[C@@H](C(=O)N1CCC[C@H]1c1ncc(-c2cccc(-c3ccc(C(=O)Nc4ccc(CN5CCS(=O)(=O)CC5)cc4)cc3)c2)[nH]1)c1ccccc1` [Example 38, 4-[3-[2-[(2S)-1-[(2R)-2-(diethylamino)-2-phenyl-acetyl]pyrrolidin-2-yl]-1H-imidazol-5-yl]phenyl]-N-[4-[(1,1-dioxo-1,4-thiazinan-4-yl)methyl]phenyl]benzamide], in that order: 2.87 nM, 2.88 nM, 314 nM and 316 nM.
Taken in the same sequence, the figures for `CN(C)[C@@H](C(=O)N1CCC[C@H]1c1ncc(-c2cccc(-c3ccc(C(=O)Nc4ccc(CN5CCS(=O)(=O)CC5)cc4)cc3)c2)[nH]1)c1ccccc1` [Example 39, 4-[3-[2-[(2S)-1-[(2R)-2-(dimethylamino)-2-phenyl-acetyl]pyrrolidin-2-yl]-1H-imidazol-5-yl]phenyl]-N-[4-[(1,1-dioxo-1,4-thiazinan-4-yl)methyl]phenyl]benzamide] were 4.81 nM, 4.79 nM, 1100 nM and 1100 nM.
For the compound `CCCS(=O)(=O)N1CCN(Cc2ccc(NC(=O)c3ccc(-c4ccc(-c5cnc([C@@H]6CCCN6C(=O)[C@H](C)NC(=O)OC)[nH]5)cc4)cc3)cc2)CC1` [Example 41, Methyl N-[(1S)-1-methyl-2-oxo-2-[(2S)-2-[5-[4-[4-[[4-[(4-propylsulfonylpiperazin-1-yl)methyl]phenyl]carbamoyl]phenyl]phenyl]-1H-imidazol-2-yl]pyrrolidin-1-yl]ethyl]carbamate], the IC50 is 1.15 nM in experiment [1] (read-out: HCV IC50 1b Replicon), 1.15 nM in experiment [1] (setting [3]), 47 nM in experiment [2] (read-out: HCV IC50 Elisa 1a) and 46.8 nM in experiment [2] (setting [4]).
Regarding `CCCS(=O)(=O)N1CCN(Cc2ccc(NC(=O)c3ccc(-c4ccc(-c5cnc([C@@H]6CCCN6C(=O)[C@@H](NC(=O)OC)c6ccccc6)[nH]5)cc4)cc3)cc2)CC1` [Example 42, Methyl N-[(1S)-2-oxo-1-phenyl-2-[(2S)-2-[5-[4-[4-[[4-[(4-propylsulfonylpiperazin-1-yl)methyl]phenyl]carbamoyl]phenyl]phenyl]-1H-imidazol-2-yl]pyrrolidin-1-yl]ethyl]carbamate], the IC50 in experiment [1] (read-out: HCV IC50 1b Replicon) was 0.05 nM; in experiment [1] (setting [3]), 0.0537 nM; in experiment [2] (read-out: HCV IC50 Elisa 1a) it was 97.4 nM; in experiment [2] (setting [4]), 97.7 nM.
For `CCCS(=O)(=O)N1CCN(Cc2ccc(NC(=O)c3ccc(-c4ccc(-c5cnc([C@@H]6CCCN6C(=O)[C@H](NC(=O)OC)c6ccccc6)[nH]5)cc4)cc3)cc2)CC1` [Example 43, Methyl N-[(1R)-2-oxo-1-phenyl-2-[(2S)-2-[5-[4-[4-[[4-[(4-propylsulfonylpiperazin-1-yl)methyl]phenyl]carbamoyl]phenyl]phenyl]-1H-imidazol-2-yl]pyrrolidin-1-yl]ethyl]carbamate], in that order: 0.05 nM, 0.055 nM, 77.7 nM and 77.6 nM.

The values above are taken from patent US20100215618A1, “NOVEL COMPOUNDS - 644” (Arrow Therapeutics Limited, priority 2009, published 2010).
